Experiments:
Type in all cases: in vivo
Echinocloa crus-galli [1] = test: greenhouse test, pre-emergence treatment, ECHCG
Procedure, shortened: (§1)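 Herbicidal effect rated on a 0-100 scale, where 0 is normal growth and 100 is no emergence or destroyed aerial parts, 2 to 4 weeks after soil application at sowing.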

Agrostis stolonifera = test: greenhouse test, pre-emergence treatment, AGSST; conditions: 2000 g/ha
Source text: (§2) The culture containers used were plastic flowerpots containing loamy sand with approximately 3.0% of humus as the substrate. The seeds of the test plants were sown separately for each species.
(§3) For the pre-emergence treatment, the active ingredients, which had been suspended or emulsified in water, were applied directly after sowing by means of finely distributing nozzles. The containers were irrigated gently to promote germination and growth and subsequently covered with transparent plastic hoods until the plants had rooted. This cover caused uniform germination of the test plants, unless this had been impaired by the active ingredients.
(§4) Depending on the species, the plants were kept at 10-25° C. or 20-35° C., respectively.
(§5) The test period extended over 2 to 4 weeks. During this time, the plants were tended, and their response to the individual treatments was evaluated.
(§6) Evaluation was carried out using a scale from 0 to 100. 100 means no emergence of the plants, or complete destruction of at least the aerial moieties, and 0 means no damage, or normal course of growth. A good herbicidal activity is given at values of at least 70 and a very good herbicidal activity is given at values of at least 85.
(§7) The plants used in the greenhouse experiments were of the following species: […]

Echinocloa crus-galli [2] = test: greenhouse test, post-emergence treatment, ECHCG; conditions: post-emergence
Procedure, shortened: (§8)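 Visual injury rating on a 0–100 scale (0 = no damage, 100 = aerial parts fully destroyed) after a 2–4 week test period. Foliar application of compound in aqueous suspension/emulsion to plants at 3–15 cm; greenhouse temperatures 10–25 °C or 20–35 °C depending on species.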

Apera spica-venti = test: greenhouse test, pre-emergence treatment, APESV
Procedure, shortened: as §1

Amaranthus retroflexus [3] = test: greenhouse test, post-emergence treatment, AMARE
Procedure, shortened: as §8

Alopecurus myosuroides = test: greenhouse test, post-emergence treatment, ALOMY; conditions: post-emergence
Procedure, shortened: as §8

Poa annua [4] = test: greenhouse test, post-emergence treatment, POAAN
Source text: as §2
(§9) For the post-emergence treatment, the test plants were first grown to a height of 3 to 15 cm, depending on the plant habit, and only then treated with the active ingredients which had been suspended or emulsified in water. For this purpose, the test plants were either sown directly and grown in the same containers, or they were first grown separately as seedlings and transplanted into the test containers a few days prior to treatment.
as §4, §5, §6, §7

Setaria faberi = test: greenhouse test, pre-emergence treatment, SETFA
Source text: as §2, §3, §4, §5, §6, §7

Poa annua [5] = test: greenhouse test, pre-emergence treatment, POAAN
Source text: as §2, §3, §4, §5, §6, §7

Lolium multiflorum = test: greenhouse test, post-emergence treatment, LOLMU
Source text: as §2, §9, §4, §5, §6, §7

Avena fatua = test: greenhouse test, post-emergence treatment, AVEFA; conditions: 500 g/ha
Procedure, shortened: as §8

Abutilon theophrasti = test: greenhouse test, post-emergence treatment, ABUTH
Source text: as §2, §9, §4, §5, §6, §7

Matricaria inodora = test: greenhouse test, post-emergence treatment, MATIN; conditions: 2000 g/ha
Source text: as §2, §9, §4, §5, §6, §7

Amaranthus retroflexus [6] = test: greenhouse test, pre-emergence treatment, AMARE; conditions: 1000 g/ha
Source text: as §2, §3, §4, §5, §6, §7

Setaria viridis = test: greenhouse test, post-emergence treatment, SETVI; conditions: 1000 g/ha
Procedure, shortened: as §8

Polygonum convolvulus = test: greenhouse test, post-emergence treatment, POLCO; conditions: 500 g/ha
Source text: as §2, §9, §4, §5, §6, §7

Clc1ccccc1-c1cnc(C2CC2)nc1C(Br)Br [Ex. 35]
herbicidal activity (Echinocloa crus-galli [1]; 2000 g/ha): very good (a very good herbicidal activity is given at values of at least 85) | herbicidal activity (Agrostis stolonifera): very good (a very good herbicidal activity is given at values of at least 85) | herbicidal activity (Echinocloa crus-galli [2]; 2000 g/ha): very good (a very good herbicidal activity is given at values of at least 85) | herbicidal activity (Apera spica-venti; 2000 g/ha): very good (a very good herbicidal activity is given at values of at least 85) | herbicidal activity (Amaranthus retroflexus [3]; 2000 g/ha): very good (a very good herbicidal activity is given at values of at least 85) | herbicidal activity (Alopecurus myosuroides; 2000 g/ha): very good (a very good herbicidal activity is given at values of at least 85)

Clc1ccccc1-c1cnc(C2CC2)nc1-c1ccnnc1 [Ex. 234]
herbicidal activity (Poa annua [4]; 2000 g/ha): good (A good herbicidal activity is given at values of at least 70) | herbicidal activity (Apera spica-venti; 2000 g/ha): very good (a very good herbicidal activity is given at values of at least 85)

Cc1cocc1-c1nc(C2CC2)ncc1-c1ccccc1Br [Ex. 269]
herbicidal activity (Setaria faberi; 1000 g/ha): very good (a very good herbicidal activity is given at values of at least 85) | herbicidal activity (Echinocloa crus-galli [2]; 1000 g/ha): very good (a very good herbicidal activity is given at values of at least 85)

Cc1nc(C)c(-c2nc(C3CC3)ncc2-c2cc(C(F)F)ccc2Cl)o1 [Ex. 291]
herbicidal activity (Echinocloa crus-galli [1]; 500 g/ha): very good (a very good herbicidal activity is given at values of at least 85) | herbicidal activity (Apera spica-venti; 500 g/ha): very good (a very good herbicidal activity is given at values of at least 85) | herbicidal activity (Poa annua [5]; 500 g/ha): very good (a very good herbicidal activity is given at values of at least 85) | herbicidal activity (Lolium multiflorum; 500 g/ha): good (A good herbicidal activity is given at values of at least 70) | herbicidal activity (Avena fatua): good (A good herbicidal activity is given at values of at least 70) | herbicidal activity (Alopecurus myosuroides; 500 g/ha): good (A good herbicidal activity is given at values of at least 70)

O=[N+]([O-])c1ccccc1-c1cnc(C2CC2)nc1-c1ccco1 [Ex. 37]
herbicidal activity (Setaria faberi; 2000 g/ha): good (A good herbicidal activity is given at values of at least 70)

OC(c1nc(Cl)ccc1Cl)C(O)c1nc(C2CC2)ncc1-c1ccccc1Cl (centres unmarked) [Ex. 259]
herbicidal activity (Poa annua [4]; 2000 g/ha): very good (a very good herbicidal activity is given at values of at least 85) | herbicidal activity (Echinocloa crus-galli [1]; 2000 g/ha): good (A good herbicidal activity is given at values of at least 70) | herbicidal activity (Echinocloa crus-galli [2]; 2000 g/ha): very good (a very good herbicidal activity is given at values of at least 85) | herbicidal activity (Apera spica-venti; 2000 g/ha): good (A good herbicidal activity is given at values of at least 70) | herbicidal activity (Alopecurus myosuroides; 2000 g/ha): very good (a very good herbicidal activity is given at values of at least 85)

Cc1ocnc1-c1nc(C2CC2)ncc1-c1ccccc1Cl [Ex. 267]
herbicidal activity (Poa annua [4]; 2000 g/ha): very good (a very good herbicidal activity is given at values of at least 85) | herbicidal activity (Echinocloa crus-galli [1]; 2000 g/ha): very good (a very good herbicidal activity is given at values of at least 85) | herbicidal activity (Echinocloa crus-galli [2]; 2000 g/ha): very good (a very good herbicidal activity is given at values of at least 85) | herbicidal activity (Abutilon theophrasti; 2000 g/ha): very good (a very good herbicidal activity is given at values of at least 85) | herbicidal activity (Poa annua [5]; 2000 g/ha): very good (a very good herbicidal activity is given at values of at least 85)

OCc1nc(C2CC2)ncc1-c1cc(F)ccc1Cl [Ex. 14]
herbicidal activity (Apera spica-venti; 250 g/ha): very good (a very good herbicidal activity is given at values of at least 85) | herbicidal activity (Lolium multiflorum; 250 g/ha): good (A good herbicidal activity is given at values of at least 70)

Fc1ccc(-c2nc(C3CC3)ncc2-c2ccccc2Cl)cc1 [Ex. 11]
herbicidal activity (Echinocloa crus-galli [1]; 2000 g/ha): good (A good herbicidal activity is given at values of at least 70) | herbicidal activity (Setaria faberi; 2000 g/ha): very good (a very good herbicidal activity is given at values of at least 85)

N#CC(C#N)c1nc(C2CC2)ncc1-c1ccccc1Br [Ex. 25]
herbicidal activity (Agrostis stolonifera): very good (a very good herbicidal activity is given at values of at least 85) | herbicidal activity (Poa annua [5]; 2000 g/ha): very good (a very good herbicidal activity is given at values of at least 85) | herbicidal activity (Matricaria inodora): very good (a very good herbicidal activity is given at values of at least 85)

Cc1nc(C2CC2)ncc1-c1ccccc1C(F)(F)F [Ex. 17]
herbicidal activity (Echinocloa crus-galli [1]; 2000 g/ha): very good (a very good herbicidal activity is given at values of at least 85) | herbicidal activity (Agrostis stolonifera): very good (a very good herbicidal activity is given at values of at least 85) | herbicidal activity (Setaria faberi; 2000 g/ha): very good (a very good herbicidal activity is given at values of at least 85)

CCc1ncoc1-c1nc(C2CC2)ncc1-c1ccccc1Cl [Ex. 286]
herbicidal activity (Echinocloa crus-galli [1]; 1000 g/ha): very good (a very good herbicidal activity is given at values of at least 85) | herbicidal activity (Echinocloa crus-galli [2]; 1000 g/ha): very good (a very good herbicidal activity is given at values of at least 85) | herbicidal activity (Apera spica-venti; 1000 g/ha): very good (a very good herbicidal activity is given at values of at least 85) | herbicidal activity (Abutilon theophrasti; 1000 g/ha): very good (a very good herbicidal activity is given at values of at least 85) | herbicidal activity (Amaranthus retroflexus [3]; 1000 g/ha): very good (a very good herbicidal activity is given at values of at least 85) | herbicidal activity (Amaranthus retroflexus [6]): very good (a very good herbicidal activity is given at values of at least 85)

Clc1ccccc1-c1cnc(C2CC2)nc1C1CCOC1 (centres unmarked) [Ex. 59]
herbicidal activity (Echinocloa crus-galli [1]; 1000 g/ha): very good (a very good herbicidal activity is given at values of at least 85) | herbicidal activity (Setaria viridis): very good (a very good herbicidal activity is given at values of at least 85) | herbicidal activity (Setaria faberi; 1000 g/ha): good (A good herbicidal activity is given at values of at least 70) | herbicidal activity (Echinocloa crus-galli [2]; 1000 g/ha): good (A good herbicidal activity is given at values of at least 70)

COCC(=Cc1nc(C2CC2)ncc1-c1ccccc1Cl)COC [Ex. 293]
herbicidal activity (Echinocloa crus-galli [1]; 1000 g/ha): good (A good herbicidal activity is given at values of at least 70) | herbicidal activity (Setaria faberi; 1000 g/ha): very good (a very good herbicidal activity is given at values of at least 85) | herbicidal activity (Abutilon theophrasti; 1000 g/ha): good (A good herbicidal activity is given at values of at least 70)

Cc1ncc(-c2nc(C3CC3)ncc2-c2ccccc2Cl)o1 [Ex. 244]
herbicidal activity (Poa annua [4]; 500 g/ha): good (A good herbicidal activity is given at values of at least 70) | herbicidal activity (Echinocloa crus-galli [1]; 500 g/ha): very good (a very good herbicidal activity is given at values of at least 85) | herbicidal activity (Polygonum convolvulus): good (A good herbicidal activity is given at values of at least 70) | herbicidal activity (Apera spica-venti; 500 g/ha): very good (a very good herbicidal activity is given at values of at least 85) | herbicidal activity (Poa annua [5]; 500 g/ha): very good (a very good herbicidal activity is given at values of at least 85) | herbicidal activity (Alopecurus myosuroides; 500 g/ha): good (A good herbicidal activity is given at values of at least 70)

N#CC(C#N)c1nc(C2CC2)ncc1-c1ccc(F)cc1Br [Ex. 36]
herbicidal activity (Agrostis stolonifera): very good (a very good herbicidal activity is given at values of at least 85) | herbicidal activity (Poa annua [5]; 2000 g/ha): very good (a very good herbicidal activity is given at values of at least 85) | herbicidal activity (Matricaria inodora): very good (a very good herbicidal activity is given at values of at least 85)

Brc1ccccc1-c1cnc(C2CC2)nc1C(Br)Br [Ex. 27]
herbicidal activity (Echinocloa crus-galli [1]; 2000 g/ha): very good (a very good herbicidal activity is given at values of at least 85) | herbicidal activity (Agrostis stolonifera): very good (a very good herbicidal activity is given at values of at least 85) | herbicidal activity (Echinocloa crus-galli [2]; 2000 g/ha): very good (a very good herbicidal activity is given at values of at least 85) | herbicidal activity (Apera spica-venti; 2000 g/ha): very good (a very good herbicidal activity is given at values of at least 85) | herbicidal activity (Amaranthus retroflexus [3]; 2000 g/ha): very good (a very good herbicidal activity is given at values of at least 85) | herbicidal activity (Alopecurus myosuroides; 2000 g/ha): very good (a very good herbicidal activity is given at values of at least 85)

From patent publication US11178871B2, “Herbicidal pyrimidine compounds” (BASF SE, priority 2016, dated 2021)
